The values that follow come from US20250366475A1, “HERBICIDAL COMBINATIONS AND A METHOD FOR CONTROLLING UNDESIRED VEGETATION” (UPL Mauritius Limited, priority 2022, published 2025).

The test system of this assay is Brachiaria decumbens. Nature of the assay: Post-emergence herbicidal activity, efficacy on Brachiaria decumbens (Colby method for expected efficacy). The class given is in vivo. The protocol: Methodology: Trials were conducted to evaluate the efficacy of the combinations comprising L-glufosinate ammonium and the additional herbicides on Brachiaria genus weeds.
All treatments were in 4 replications per treatment with a spray volume of about 150 L/ha.
Efficacy Evaluation: The expected efficacy of a combination comprising L-glufosinate ammonium and additional herbicides was calculated using the well-established Colby method.
In the Colby method, the expected (or predicted) response of a combination of herbicides is calculated by taking the product of the observed response for each individual component of the combination when applied alone, divided by 100, and subtracting this value from the sum of the observed response for each component when applied alone. An unexpected enhancement in efficacy of the combination is then determined by comparing the observed response of the combination to the expected (or predicted) response as calculated from the observed response of each individual component alone. […] The Colby method requires only a single dose of each herbicide applied alone and the mixture of both doses. The formula used to calculate the expected efficacy (EE) which was compared with the observed efficacy (OE) to determine the efficacy of the present disclosure is explained hereinbelow:
The expected efficacy for a combination of two active ingredients is as follows:
[formula] • wherein, • A=Observed efficacy of active ingredient A at the same concentration as used in the mixture. • B=Observed efficacy of the active ingredient B at the same concentration as used in the mixture.

On to `Cc1ccc2c(c1)[C@H](Nc1nc(N)nc(C(C)F)n1)[C@@H](C)C2` (some centres unmarked) [Indaziflam], for which the “Observed efficacy (%)” value (50 g a.i./ha, 7 DAA, Table 8) turned out to be 50%; the “Observed efficacy (%)” value (50 g a.i./ha, 14 DAA, Table 8) worked out at 75%; the “Observed efficacy (%)” value (50 g a.i./ha, 21 DAA, Table 8) is 90%.

Consider `CS(=O)(=O)c1cc(C(F)(F)F)ccc1C(=O)c1cnoc1C1CC1` [Isoxaflutole], for which the “Observed efficacy (%)” value runs as follows: (60 g a.i./ha, 7 DAA, Table 9) 45%; (60 g a.i./ha, 14 DAA, Table 9) 70%; (60 g a.i./ha, 21 DAA, Table 9) 85%; (60 g a.i./ha, 28 DAA, Table 9) 75%.

For the compound `CP(=O)(O)CC[C@H](N)C(=O)O.N` [L-glufosinate ammonium], the “Observed efficacy (%)” value is recorded as 40% (150 g a.i./ha, 3 DAA, Table 13); 40% (150 g a.i./ha, 3 DAA, Table 16); 65% (150 g a.i./ha, 7 DAA, Table 7); 75% (150 g a.i./ha, 7 DAA, Table 8); 70% (150 g a.i./ha, 7 DAA, Table 9); 65% (150 g a.i./ha, 7 DAA, Table 10). Besides, the “Observed efficacy (%)” value was found to be 75% (150 g a.i./ha, 7 DAA, Table 11); 65% (150 g a.i./ha, 7 DAA, Table 12); 70% (150 g a.i./ha, 14 DAA, Table 7); 65% (150 g a.i./ha, 14 DAA, Table 8); 65% (150 g a.i./ha, 14 DAA, Table 9); 70% (150 g a.i./ha, 14 DAA, Table 10). Besides, the “Observed efficacy (%)” value (150 g a.i./ha, 14 DAA, Table 11) amounted to 85%; the “Observed efficacy (%)” value (150 g a.i./ha, 14 DAA, Table 12) was 70%; the “Observed efficacy (%)” value (150 g a.i./ha, 14 DAA, Table 15) was 75%; the “Observed efficacy (%)” value (150 g a.i./ha, 21 DAA, Table 7) stood at 70%; the “Observed efficacy (%)” value (150 g a.i./ha, 21 DAA, Table 8) was 60%; the “Observed efficacy (%)” value (150 g a.i./ha, 21 DAA, Table 9) stood at 60%. The “Observed efficacy (%)” value came to 70% (150 g a.i./ha, 21 DAA, Table 10); 85% (150 g a.i./ha, 21 DAA, Table 11); 70% (150 g a.i./ha, 21 DAA, Table 12); 70% (150 g a.i./ha, 21 DAA, Table 15); 60% (150 g a.i./ha, 28 DAA, Table 7); 60% (150 g a.i./ha, 28 DAA, Table 9). In addition, the “Observed efficacy (%)” value is, setting by setting: (150 g a.i./ha, 28 DAA, Table 10) 60%; (150 g a.i./ha, 28 DAA, Table 11) 85%; (150 g a.i./ha, 28 DAA, Table 12) 60%; (150 g a.i./ha, 28 DAA, Table 14) 60%; (150 g a.i./ha, 28 DAA, Table 15) 60%; (150 g a.i./ha, 35 DAA, Table 14) 55%. In addition, the “Observed efficacy (%)” value (150 g a.i./ha, 35 DAA, Table 15) stood at 55%.

For the compound `CCc1cccc(C)c1N(COC(C)C)C(=O)CCl` [Propisochlor], the “Observed efficacy (%)” value is 0% (540 g a.i./ha, 7 DAA, Table 12); 0% (540 g a.i./ha, 14 DAA, Table 12); 0% (540 g a.i./ha, 21 DAA, Table 12); 0% (540 g a.i./ha, 28 DAA, Table 12).

With `Cn1nc(C(F)(F)F)c(CS(=O)(=O)C2=NOC(C)(C)C2)c1OC(F)F` [Pyroxasulfone], the “Observed efficacy (%)” value (75 g a.i./ha, 7 DAA, Table 10) is given as 0%; the “Observed efficacy (%)” value (75 g a.i./ha, 14 DAA, Table 10) stood at 15%; the “Observed efficacy (%)” value (75 g a.i./ha, 21 DAA, Table 10) is 25%; the “Observed efficacy (%)” value (75 g a.i./ha, 28 DAA, Table 10) came to 20%.

As to `CCc1cccc(C)c1N(C(=O)CCl)[C@@H](C)COC` [S-metolachlor], the “Observed efficacy (%)” value by setting is: (960 g a.i./ha, 7 DAA, Table 7) 0%; (960 g a.i./ha, 14 DAA, Table 7) 0%; (960 g a.i./ha, 21 DAA, Table 7) 0%; (960 g a.i./ha, 28 DAA, Table 7) 0%.

In the case of `CS(=O)(=O)c1ccc(C(=O)C2C(=O)CCCC2=O)c([N+](=O)[O-])c1` [mesotrione, Mesotrione], the “Observed efficacy (%)” value (100 g a.i./ha, 3 DAA, Table 16) was found to be 10%.

As for `CCN(CC)C(=O)C(C)Oc1cccc2ccccc12` (centres unmarked) [napropamide, Napropamide], the “Observed efficacy (%)” value came out at 5% (675 g a.i./ha, 7 DAA, Table 11); 5% (675 g a.i./ha, 14 DAA, Table 11); 5% (675 g a.i./ha, 21 DAA, Table 11); 0% (675 g a.i./ha, 28 DAA, Table 11).

In the case of `CCOC(=O)C(C)Oc1ccc(Oc2cnc3cc(Cl)ccc3n2)cc1` (centres unmarked) [quizalofop-ethyl, Quizalofop-ethyl], the “Observed efficacy (%)” value reads like this: (25 g a.i./ha, 28 DAA, Table 14) 35%; (25 g a.i./ha, 35 DAA, Table 14) 30%.

As to `C[C@@H](Oc1ccc(Oc2cnc3cc(Cl)ccc3n2)cc1)C(=O)OCC1CCCO1` (some centres unmarked) [quizalofop-p-tefuryl, Quizalofop-p-tefuryl], the “Observed efficacy (%)” value reads like this: (25 g a.i./ha, 14 DAA, Table 15) 20%; (25 g a.i./ha, 21 DAA, Table 15) 10%; (25 g a.i./ha, 28 DAA, Table 15) 5%; (25 g a.i./ha, 35 DAA, Table 15) 5%.

As to `CS(=O)(=O)c1ccc(C(=O)C2C(=O)CCCC2=O)c(Cl)c1COCC(F)(F)F` [tembotrione, Tembotrione], under “53 g a.i./ha, 3 DAA, Table 13”, the “Observed efficacy (%)” value turned out to be 8%.
